In patent publication US11472857B2 (Purdue Research Foundation, priority 2015, dated 2022):
“Also recorded” adds a separate entry of the source.

Tested on: male Wistar rats
Assay: In vivo blood glucose elevation after s.c. injection
Parameters: species or system rat
Method: Rats were catheterized to enable collection of blood samples at various time points. The total blood glucose level was measured by withdrawing blood at regular intervals (5-120 min) and tested using [sequence] LITE (glucose test meters, Abbott, Chicago, Ill.).

Substance	Maximum elevation in blood glucose (2.8 nmol/kg s.c.)	Blood glucose elevation compared with native glucagon (7.1 nmol/kg s.c.)	Maximum increase in blood glucose (7.1 nmol/kg s.c.)	Time of peak blood glucose (7.1 nmol/kg s.c.)
phospho-Ser16-glucagon	~10 mg/dL	activity comparable to that of native glucagon	~50 mg/dL	20 min
phospho-Thr7-glucagon		slower response and a somewhat lower blood glucose peak; also recorded: somewhat slower increase		
phospho-Tyr13-glucagon		response similar to that of phospho-Thr5-glucagon and phospho-Ser16-glucagon; also recorded: comparable to native glucagon		
